Measurements from patent US20220281848A1, “PYRAZOLE-SUBSTITUTED PYRROLIDINONES AS HERBICIDES” (FMC Corporation, priority 2019, published 2022).

System: plants
Assay: Test D pre-emergence, other plants of Tables D1 and D3
Format: in vivo
Details: preemergent, 20 DAA
Procedure, shortened: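 Damage was rated visually from 0 (none) to 100 (total), at 20 DAA for pre-emergence and 15 d for post-emergence. Plants grew from safener-treated seed in a glasshouse at 24/18° C. or 20/16° C. day/night, 65% humidity, watered twice daily.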

CN1C[C@H](c2nn(C)c3c(F)cccc23)[C@@H](C(=O)Nc2cccc(F)c2F)C1=O [Compound 2]
damage to plant (100=total damage to plant; 0=no damage to plant), ABUTH (rate 15): 0
damage to plant (100=total damage to plant; 0=no damage to plant), ABUTH (rate 30): 0
damage to plant (100=total damage to plant; 0=no damage to plant), ABUTH (rate 60): 0
damage to plant (100=total damage to plant; 0=no damage to plant), ABUTH (rate 130): 0
damage to plant (100=total damage to plant; 0=no damage to plant), ABUTH (rate 250): 0
damage to plant (100=total damage to plant; 0=no damage to plant), ABUTH (rate 500): 20
damage to plant (100=total damage to plant; 0=no damage to plant), AMARE (rate 15): 0
damage to plant (100=total damage to plant; 0=no damage to plant), AMARE (rate 30): 0
damage to plant (100=total damage to plant; 0=no damage to plant), AMARE (rate 60): 0
damage to plant (100=total damage to plant; 0=no damage to plant), AMARE (rate 130): 0
damage to plant (100=total damage to plant; 0=no damage to plant), AMARE (rate 250): 0
damage to plant (100=total damage to plant; 0=no damage to plant), AMARE (rate 500): 0
damage to plant (100=total damage to plant; 0=no damage to plant), BIDPI (rate 15): 0
damage to plant (100=total damage to plant; 0=no damage to plant), BIDPI (rate 30): 0
damage to plant (100=total damage to plant; 0=no damage to plant), BIDPI (rate 60): 0
damage to plant (100=total damage to plant; 0=no damage to plant), BIDPI (rate 130): 0
damage to plant (100=total damage to plant; 0=no damage to plant), BIDPI (rate 250): 0
damage to plant (100=total damage to plant; 0=no damage to plant), BIDPI (rate 500): 0
damage to plant (100=total damage to plant; 0=no damage to plant), BRAPL (rate 15): 0
damage to plant (100=total damage to plant; 0=no damage to plant), BRAPL (rate 30): 70
damage to plant (100=total damage to plant; 0=no damage to plant), BRAPL (rate 60): 80
damage to plant (100=total damage to plant; 0=no damage to plant), BRAPL (rate 130): 80
damage to plant (100=total damage to plant; 0=no damage to plant), BRAPL (rate 250): 90
damage to plant (100=total damage to plant; 0=no damage to plant), BRAPL (rate 500): 90
damage to plant (100=total damage to plant; 0=no damage to plant), CYPES (rate 15): 0
damage to plant (100=total damage to plant; 0=no damage to plant), CYPES (rate 30): 0
damage to plant (100=total damage to plant; 0=no damage to plant), CYPES (rate 60): 0
damage to plant (100=total damage to plant; 0=no damage to plant), CYPES (rate 130): 0
damage to plant (100=total damage to plant; 0=no damage to plant), CYPES (rate 250): 0
damage to plant (100=total damage to plant; 0=no damage to plant), CYPES (rate 500): 0
damage to plant (100=total damage to plant; 0=no damage to plant), DIGSA (rate 15): 0
damage to plant (100=total damage to plant; 0=no damage to plant), DIGSA (rate 30): 90
damage to plant (100=total damage to plant; 0=no damage to plant), DIGSA (rate 60): 90
damage to plant (100=total damage to plant; 0=no damage to plant), DIGSA (rate 130): 90
damage to plant (100=total damage to plant; 0=no damage to plant), DIGSA (rate 250): 90
damage to plant (100=total damage to plant; 0=no damage to plant), DIGSA (rate 500): 90
damage to plant (100=total damage to plant; 0=no damage to plant), ECHCG (rate 15): 50
damage to plant (100=total damage to plant; 0=no damage to plant), ECHCG (rate 30): 50
damage to plant (100=total damage to plant; 0=no damage to plant), ECHCG (rate 60): 80
damage to plant (100=total damage to plant; 0=no damage to plant), ECHCG (rate 130): 90
damage to plant (100=total damage to plant; 0=no damage to plant), ECHCG (rate 250): 90
damage to plant (100=total damage to plant; 0=no damage to plant), ECHCG (rate 500): 90
damage to plant (100=total damage to plant; 0=no damage to plant), ELEIN (rate 15): 0
damage to plant (100=total damage to plant; 0=no damage to plant), ELEIN (rate 30): 0
damage to plant (100=total damage to plant; 0=no damage to plant), ELEIN (rate 60): 0
damage to plant (100=total damage to plant; 0=no damage to plant), ELEIN (rate 130): 0
damage to plant (100=total damage to plant; 0=no damage to plant), ELEIN (rate 250): 0
damage to plant (100=total damage to plant; 0=no damage to plant), ELEIN (rate 500): 0
damage to plant (100=total damage to plant; 0=no damage to plant), EPHHL (rate 15): 0
damage to plant (100=total damage to plant; 0=no damage to plant), EPHHL (rate 30): 0
damage to plant (100=total damage to plant; 0=no damage to plant), EPHHL (rate 60): 0
damage to plant (100=total damage to plant; 0=no damage to plant), EPHHL (rate 130): 0
damage to plant (100=total damage to plant; 0=no damage to plant), EPHHL (rate 250): 0
damage to plant (100=total damage to plant; 0=no damage to plant), EPHHL (rate 500): 10
damage to plant (100=total damage to plant; 0=no damage to plant), GLXMA (rate 15): 0
damage to plant (100=total damage to plant; 0=no damage to plant), GLXMA (rate 30): 0
damage to plant (100=total damage to plant; 0=no damage to plant), GLXMA (rate 60): 0
damage to plant (100=total damage to plant; 0=no damage to plant), GLXMA (rate 130): 0
damage to plant (100=total damage to plant; 0=no damage to plant), GLXMA (rate 250): 0
damage to plant (100=total damage to plant; 0=no damage to plant), GLXMA (rate 500): 0
damage to plant (100=total damage to plant; 0=no damage to plant), IPOHE (rate 15): 0
damage to plant (100=total damage to plant; 0=no damage to plant), IPOHE (rate 30): 0
damage to plant (100=total damage to plant; 0=no damage to plant), IPOHE (rate 60): 0
damage to plant (100=total damage to plant; 0=no damage to plant), IPOHE (rate 130): 0
damage to plant (100=total damage to plant; 0=no damage to plant), IPOHE (rate 250): 0
damage to plant (100=total damage to plant; 0=no damage to plant), IPOHE (rate 500): 0
damage to plant (100=total damage to plant; 0=no damage to plant), ORYSA (rate 15): 0
damage to plant (100=total damage to plant; 0=no damage to plant), ORYSA (rate 30): 0
damage to plant (100=total damage to plant; 0=no damage to plant), ORYSA (rate 60): 0
damage to plant (100=total damage to plant; 0=no damage to plant), ORYSA (rate 130): 0
damage to plant (100=total damage to plant; 0=no damage to plant), ORYSA (rate 250): 0
damage to plant (100=total damage to plant; 0=no damage to plant), ORYSA (rate 500): 0
damage to plant (100=total damage to plant; 0=no damage to plant), PANMI (rate 15): 0
damage to plant (100=total damage to plant; 0=no damage to plant), PANMI (rate 30): 0
damage to plant (100=total damage to plant; 0=no damage to plant), PANMI (rate 60): 0
damage to plant (100=total damage to plant; 0=no damage to plant), PANMI (rate 130): 0
damage to plant (100=total damage to plant; 0=no damage to plant), PANMI (rate 250): 0
damage to plant (100=total damage to plant; 0=no damage to plant), PANMI (rate 500): 0
damage to plant (100=total damage to plant; 0=no damage to plant), SETFA (rate 15): 0
damage to plant (100=total damage to plant; 0=no damage to plant), SETFA (rate 30): 80
damage to plant (100=total damage to plant; 0=no damage to plant), SETFA (rate 60): 80
damage to plant (100=total damage to plant; 0=no damage to plant), SETFA (rate 130): 80
damage to plant (100=total damage to plant; 0=no damage to plant), SETFA (rate 250): 80
damage to plant (100=total damage to plant; 0=no damage to plant), SETFA (rate 500): 90
damage to plant (100=total damage to plant; 0=no damage to plant), SIDSP (rate 15): 0
damage to plant (100=total damage to plant; 0=no damage to plant), SIDSP (rate 30): 0
damage to plant (100=total damage to plant; 0=no damage to plant), SIDSP (rate 60): 0
damage to plant (100=total damage to plant; 0=no damage to plant), SIDSP (rate 130): 0
damage to plant (100=total damage to plant; 0=no damage to plant), SIDSP (rate 250): 0
damage to plant (100=total damage to plant; 0=no damage to plant), SIDSP (rate 500): 0
damage to plant (100=total damage to plant; 0=no damage to plant), SORVU (rate 15): 0
damage to plant (100=total damage to plant; 0=no damage to plant), SORVU (rate 30): 0
damage to plant (100=total damage to plant; 0=no damage to plant), SORVU (rate 60): 0
